In ChEMBL document CHEMBL2331256, “Spiro heterocycles as potential inhibitors of SIRT1: Pd/C-mediated synthesis of novel N-indolylmethyl spiroindoline-3,2'-quinazolines” (Bioorg Med Chem Lett, 2013):

Columns and labels:
[1] = target: NAD-dependent histone deacetylase SIR2 (Saccharomyces cerevisiae S288c) (UniProt P06700); test: Inhibition of Sir 2 protein mediated transcriptional silencing at the telomeric locus in yeast at 50 uM after 24 to 48 hrs by URA3 reporter gene assay
[2] = test system: Saccharomyces cerevisiae; test: Cytotoxicity against yeast at 50 uM; type: organism-based; conditions: in vivo
[3] = target: NAD-dependent histone deacetylase SIR2 (Saccharomyces cerevisiae S288c) (UniProt P06700); test: Inhibition of Sir 2 protein mediated transcriptional silencing at the telomeric locus in yeast at 1 uM after 24 to 48 hrs by URA3 reporter gene assay
[4] = target: NAD-dependent histone deacetylase SIR2 (Saccharomyces cerevisiae S288c) (UniProt P06700); test: Inhibition of Sir 2 protein mediated transcriptional silencing at the telomeric locus in yeast at 30 uM after 24 to 48 hrs by URA3 reporter gene assay
[5] = target: NAD-dependent histone deacetylase SIR2 (Saccharomyces cerevisiae S288c) (UniProt P06700); test: Inhibition of Sir 2 protein mediated transcriptional silencing at the telomeric locus in yeast after 24 to 48 hrs by URA3 reporter gene assay
[6] = target: NAD-dependent histone deacetylase SIR2 (Saccharomyces cerevisiae S288c) (UniProt P06700); test: Inhibition of Sir 2 protein mediated transcriptional silencing at the telomeric locus in yeast at 10 uM after 24 to 48 hrs by URA3 reporter gene assay
[7] = target: NAD-dependent histone deacetylase SIR2 (Saccharomyces cerevisiae S288c) (UniProt P06700); test: Inhibition of Sir 2 protein mediated transcriptional silencing at the telomeric locus in yeast at 100 uM after 24 to 48 hrs by URA3 reporter gene assay

Sequence of NAD-dependent histone deacetylase SIR2 (Saccharomyces cerevisiae S288c) (P06700 whole entry): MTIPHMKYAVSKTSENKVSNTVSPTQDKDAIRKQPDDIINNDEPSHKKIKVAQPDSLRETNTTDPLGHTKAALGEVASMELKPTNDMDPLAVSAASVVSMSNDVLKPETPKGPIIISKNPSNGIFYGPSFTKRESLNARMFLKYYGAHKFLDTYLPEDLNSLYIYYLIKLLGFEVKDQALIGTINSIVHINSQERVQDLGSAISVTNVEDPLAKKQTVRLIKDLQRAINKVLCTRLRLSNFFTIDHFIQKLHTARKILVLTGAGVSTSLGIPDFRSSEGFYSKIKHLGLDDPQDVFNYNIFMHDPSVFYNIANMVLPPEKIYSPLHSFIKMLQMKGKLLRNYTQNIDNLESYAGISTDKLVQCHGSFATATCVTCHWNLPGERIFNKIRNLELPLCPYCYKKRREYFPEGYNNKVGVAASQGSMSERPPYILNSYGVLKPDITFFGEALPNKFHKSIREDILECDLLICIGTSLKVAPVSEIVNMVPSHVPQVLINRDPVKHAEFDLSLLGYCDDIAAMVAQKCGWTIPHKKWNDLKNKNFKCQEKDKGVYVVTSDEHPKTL

Structure (SMILES)	inhibition [1] [%]	Activity [2]	inhibition [3] [%]	inhibition [4] [%]	inhibition [5]	inhibition [6] [%]	inhibition [7] [%]
CS(=O)(=O)n1c(CN2C(=O)C3(NC(=O)c4ccccc4N3)c3ccccc32)cc2cc(C(F)(F)F)ccc21 (stereo not drawn)	39.6	Non-toxic					
Cc1ccc(S(=O)(=O)n2c(CN3C(=O)C4(NC(=O)c5ccccc5N4)c4ccccc43)cc3cc(F)ccc32)cc1 (stereo not drawn)	15.2	Non-toxic					
Cc1ccc(S(=O)(=O)n2c(CN3C(=O)C4(NC(=O)c5ccccc5N4)c4ccccc43)cc3cc(C(F)(F)F)ccc32)cc1 (stereo not drawn)	38.4	Non-toxic					
COc1ccc2c(c1)cc(CN1C(=O)C3(NC(=O)c4ccccc4N3)c3ccccc31)n2S(=O)(=O)c1ccc(C)cc1 (stereo not drawn)	41	Non-toxic	12	32	Dose-dependent effect	25	61
COc1ccc2c(c1)cc(CN1C(=O)C3(NC(=O)c4ccccc4N3)c3ccccc31)n2S(C)(=O)=O (stereo not drawn)	39	Non-toxic	9	29	Dose-dependent effect	20	67
CS(=O)(=O)n1c(CN2C(=O)C3(NC(=O)c4ccccc4N3)c3ccccc32)cc2cc(Br)ccc21 (stereo not drawn)	38.5	Non-toxic					
Cc1ccc(S(=O)(=O)n2c(CN3C(=O)C4(NC(=O)c5ccccc5N4)c4ccccc43)cc3cc(C)ccc32)cc1 (stereo not drawn)	1.2	Non-toxic					
CS(=O)(=O)n1c(CN2C(=O)C3(NC(=O)c4ccccc4N3)c3ccccc32)cc2cc(F)ccc21 (stereo not drawn)	30.3	Non-toxic					
CS(=O)(=O)n1c(CN2C(=O)C3(NC(=O)c4ccccc4N3)c3ccccc32)cc2ccccc21 (stereo not drawn)	13.9	Non-toxic					
Cc1ccc2c(c1)cc(CN1C(=O)C3(NC(=O)c4ccccc4N3)c3ccccc31)n2S(C)(=O)=O (stereo not drawn)	40.9	Non-toxic					
Cc1ccc(S(=O)(=O)n2c(CN3C(=O)C4(NC(=O)c5ccccc5N4)c4ccccc43)cc3cc(Cl)ccc32)cc1 (stereo not drawn)	40.9	Non-toxic	18	37	Dose-dependent effect	30	56
Cc1ccc(S(=O)(=O)n2c(CN3C(=O)C4(NC(=O)c5ccccc5N4)c4ccccc43)cc3cc(Br)ccc32)cc1 (stereo not drawn)	16.4	Non-toxic					
Cc1ccc(S(=O)(=O)n2c(CN3C(=O)C4(NC(=O)c5ccccc5N4)c4ccccc43)cc3ccccc32)cc1 (stereo not drawn)	36.5	Non-toxic					
CS(=O)(=O)n1c(CN2C(=O)C3(NC(=O)c4ccccc4N3)c3ccccc32)cc2cc(Cl)ccc21 (stereo not drawn)	30.9	Non-toxic					
